# DBAASP
# Values joined by “and” are separate entries in the source; they are usually repeats but may differ in a detail not shown here. Equal entries are not always repeated.
# Legend:
# Test in all cases: ≥ marks a high value that may be exact or a test limit, other limits are often not marked, values filed in µg/mL are converted to µM
# [1] = test system: Escherichia coli ATCC 25922
# [2] = test system: Staphylococcus aureus ATCC 29213
# [3] = test system: Pseudomonas aeruginosa ATCC 27853
# [4] = test system: Staphylococcus aureus ATCC 25923
SMILES,MIC [1],MIC [2] [µM],MIC [3] [µM],MIC [4] [µM]
CC[C@H](C)[C@H](NC(=O)[C@@H](NC(=O)[C@@H](NC(=O)CNC(=O)[C@H](C)NC(=O)[C@@H](NC(=O)[C@H](CC(N)=O)NC(=O)[C@@H](NC(=O)[C@H](C)NC(=O)[C@H](CC(C)C)NC(=O)[C@H](CC(N)=O)NC(=O)[C@H](CCCCN)NC(=O)[C@@H](NC(=O)[C@@H](NC(=O)[C@H](CO)NC(=O)[C@H](Cc1ccccc1)NC(=O)[C@H](Cc1ccccc1)NC(=O)CN)[C@@H](C)O)C(C)C)[C@@H](C)O)C(C)C)[C@@H](C)O)C(C)C)C(=O)N[C@@H](CC(=O)O)C(=O)N[C@H](C(=O)N[C@@H](CC(C)C)C(=O)N[C@@H](CCCCN)C(=O)N[C@H]1CSSC[C@@H](C(=O)N[C@@H](CCCN=C(N)N)C(=O)N[C@@H](CO)C(=O)O)NC(=O)CNC(=O)CNC(=O)[C@H]([C@@H](C)O)NC(=O)[C@H](C(C)C)NC(=O)[C@H](CCCCN)NC1=O)[C@@H](C)O [GFFSTVKNLATNVAGTVIDTLKCKVTGGCRS],78 µM,–,–,–
C[C@H](NC(=O)[C@H](Cc1ccccc1)NC(=O)[C@H](CCCCN)NC(=O)[C@H](CCCCN)NC(=O)[C@H](C)NC(=O)[C@@H](N)Cc1ccccc1)C(=O)N[C@@H](CCCCN)C(=O)N[C@@H](CCCCN)C(=O)N[C@@H](Cc1ccccc1)C(=O)N[C@@H](CCCCN)C(N)=O [FAKKFAKKFK],193 µM,–,193,193
CC[C@H](C)[C@H](NC(=O)CN)C(=O)NCC(=O)N[C@@H](CCCCN)C(=O)N[C@@H](CC(C)C)C(=O)N[C@@H](Cc1ccccc1)C(=O)N[C@@H](CC(C)C)C(=O)N[C@@H](Cc1cnc[nH]1)C(=O)N[C@@H](C)C(=O)N[C@@H](C)C(=O)N[C@@H](CCCCN)C(=O)N[C@@H](CCCCN)C(=O)N[C@@H](Cc1ccccc1)C(=O)N[C@@H](C)C(=O)N[C@@H](CCCCN)C(=O)N[C@@H](C)C(=O)N[C@@H](Cc1ccccc1)C(=O)N[C@H](C(=O)N[C@@H](C)C(=O)N[C@@H](CCC(=O)O)C(=O)N[C@@H](CCCCN)C(=O)N[C@@H](CCSC)C(=O)N[C@@H](CC(N)=O)C(=O)N[C@@H](CO)C(=O)O)C(C)C [GIGKLFLHAAKKFAKAFVAEKMNS],–,38.4,–,–
CC[C@H](C)[C@H](NC(=O)[C@@H](NC(=O)[C@@H]1CCCN1C(=O)CNC(=O)[C@@H](NC(=O)[C@@H](N)Cc1ccccc1)[C@@H](C)CC)[C@@H](C)CC)C(=O)N[C@@H](CO)C(=O)N[C@@H](C)C(=O)N[C@@H](CC(C)C)C(=O)N[C@@H](C)C(=O)N[C@@H](CO)C(=O)N[C@@H](CC(C)C)C(=O)N[C@@H](Cc1ccccc1)C(=O)NCC(N)=O [FIGPIISALASLFG],> 60 µM,–,–,> 60
CC[C@H](C)[C@H](NC(=O)CNC(=O)[C@H](CC(N)=O)NC(=O)[C@@H](NC(=O)[C@@H](NC(=O)CNC(=O)[C@@H](NC(=O)[C@H](CCCCN)NC(=O)[C@@H](NC(=O)CNC(=O)[C@H](CCCCN)NC(=O)CNC(=O)[C@@H](NC(=O)[C@@H](NC(=O)[C@H](CCCCN)NC(=O)[C@@H]1CCCN1C(=O)[C@H](Cc1ccccc1)NC(=O)[C@@H](NC(=O)CN)[C@@H](C)CC)[C@@H](C)CC)[C@@H](C)CC)[C@@H](C)CC)[C@@H](C)O)[C@@H](C)CC)C(C)C)C(=O)N[C@@H](CCCCN)C(=O)N[C@@H](CO)C(=O)N[C@@H](CC(C)C)C(=O)N[C@H](C(=O)N[C@@H](CCCCN)C(=O)NCC(=O)N[C@H](C(=O)NCC(=O)N[C@@H](CCSC)C(=O)N[C@@H](CCCCN)C(=O)N[C@H](C(=O)N[C@@H](Cc1ccccc1)C(=O)N[C@@H](CCCCN)C(=O)N[C@@H](C)C(=O)NCC(=O)N[C@@H](CC(C)C)C(=O)N[C@@H](CO)C(=O)N[C@@H](CC(N)=O)C(=O)N[C@H](C(=O)NCC(=O)N[C@@H](CC(N)=O)C(=O)N[C@H](C(=O)NCC(=O)N[C@H]1CSSC[C@@H](C(=O)O)NC(=O)[C@H](CCC(=O)O)NC(=O)[C@H](CC(=O)O)NC(=O)[C@H](CCC(=O)O)NC(=O)[C@H](CC(N)=O)NC1=O)[C@@H](C)O)[C@@H](C)CC)C(C)C)C(C)C)C(C)C [GIFPKIIGKGIKTGIVNGIKSLVKGVGMKVFKAGLSNIGNTGCNEDEC],1 µM,–,–,–
CC[C@H](C)[C@H](NC(=O)CNC(=O)[C@H](CCSC)NC(=O)[C@H](CCCCN)NC(=O)[C@H](C)NC(=O)[C@H](CC(C)C)NC(=O)[C@H](CCCCN)NC(=O)[C@H](CCC(=O)O)NC(=O)[C@H](CC(C)C)NC(=O)CNC(=O)[C@H](CCCN=C(N)N)NC(=O)[C@H](CC(C)C)NC(=O)[C@@H](NC(=O)[C@H](CO)NC(=O)[C@H](CC(C)C)NC(=O)[C@H](C)N)[C@@H](C)CC)C(=O)N[C@@H](C)C(=O)N[C@@H](CC(C)C)C(=O)N[C@H](C(=O)N[C@@H](CC(N)=O)C(=O)N[C@H]1CSSC[C@@H](C(=O)O)NC(=O)[C@H](CCCCN)NC(=O)[C@H](CCCCN)NC(=O)[C@H]([C@@H](C)O)NC(=O)[C@H](C)NC(=O)[C@H](CCCCN)NC1=O)[C@@H](C)O [ALSILRGLEKLAKMGIALTNCKATKKC],28 µM,–,–,–
CC(C)C[C@H](NC(=O)CN)C(=O)N[C@@H](CC(C)C)C(=O)N[C@@H](CC(=O)O)C(=O)N[C@@H](Cc1ccccc1)C(=O)N[C@@H](CC(C)C)C(=O)N[C@@H](CCCCN)C(=O)N[C@@H](C)C(=O)N[C@@H](C)C(=O)NCC(=O)N[C@@H](CCCCN)C(=O)NCC(=O)N[C@@H](CC(C)C)C(=O)N[C@H](C(=O)N[C@@H](CO)C(=O)N[C@@H](CC(N)=O)C(=O)N[C@@H](CC(C)C)C(=O)N[C@@H](CC(C)C)C(=O)N[C@@H](CCC(=O)O)C(=O)N[C@@H](CCCCN)C(N)=O)C(C)C [GLLDFLKAAGKGLVSNLLEK],15 µM,–,–,15
CC[C@H](C)[C@H](NC(=O)CNC(=O)[C@H](CCCCN)NC(=O)[C@@H](NC(=O)[C@H](CC(C)C)NC(=O)[C@H](CO)NC(=O)CNC(=O)[C@H](CC(C)C)NC(=O)CNC(=O)[C@H](C)NC(=O)[C@H](CCCCN)NC(=O)[C@H](Cc1ccccc1)NC(=O)[C@@H](NC(=O)[C@H](CC(=O)O)NC(=O)[C@H](CCCCN)NC(=O)[C@H](CC(C)C)NC(=O)CN)[C@@H](C)CC)C(C)C)C(=O)N[C@@H](C)C(=O)N[C@@H](C)C(=O)N[C@@H](Cc1cnc[nH]1)C(=O)N[C@H](C(=O)N[C@@H](C)C(=O)N[C@@H](CC(N)=O)C(N)=O)C(C)C [GLKDIFKAGLGSLVKGIAAHVAN],25 µM,–,–,200
CC(C)C[C@H](NC(=O)[C@H](C)NC(=O)[C@@H](N)CCCCN)C(=O)N[C@@H](Cc1c[nH]c2ccccc12)C(=O)N[C@@H](CCCCN)C(=O)N[C@H](C(=O)N[C@@H](CC(C)C)C(=O)N[C@@H](CC(C)C)C(=O)N[C@@H](CCCCN)C(=O)N[C@@H](CCCCN)C(=O)N[C@H](C(=O)N[C@@H](CC(C)C)C(=O)N[C@@H](CCCCN)C(=O)N[C@@H](C)C(N)=O)C(C)C)[C@@H](C)O [KALWKTLLKKVLKA],3 µM,–,–,25
CC(C)[C@H](NC(=O)[C@@H]1CCCN1C(=O)[C@@H](N)Cc1ccccc1)C(=O)N[C@H](C(=O)N[C@@H](Cc1c[nH]c2ccccc12)C(=O)N[C@@H](CCCCN)C(=O)N[C@@H](Cc1c[nH]c2ccccc12)C(=O)N[C@@H](Cc1c[nH]c2ccccc12)C(=O)N[C@@H](CCCCN)C(=O)N[C@@H](Cc1c[nH]c2ccccc12)C(=O)N[C@@H](Cc1c[nH]c2ccccc12)C(=O)N[C@@H](CCCCN)C(=O)NCC(N)=O)[C@@H](C)O [FPVTWKWWKWWKG],5.3 µM and 8 µM,–,–,20
CC[C@H](C)[C@H](NC(=O)[C@H](CCCN=C(N)N)NC(=O)[C@H](CCCCN)NC(=O)[C@H](CC(C)C)NC(=O)[C@@H](NC(=O)CN)C(C)C)C(=O)N[C@@H](CCCCN)C(=O)N[C@H](C(=O)N[C@@H](CC(C)C)C(=O)N[C@H](C(N)=O)C(C)C)[C@@H](C)O [GVLKRIKTLV],> 200 µM,–,–,–

# Next, values leading:
MIC [1],MIC [2] [µM],MIC [3] [µM],MIC [4] [µM],SMILES
5 µM,> 40,–,–,CC(C)C[C@H](NC(=O)[C@H](CCCCN)NC(=O)[C@H](CC(C)C)NC(=O)[C@H](CC(C)C)NC(=O)[C@H](CCCCN)NC(=O)[C@H](CCCCN)NC(=O)[C@@H]1CCCN1C(=O)[C@H](CC(C)C)NC(=O)[C@H](CCCCN)NC(=O)[C@H](CC(C)C)NC(=O)[C@H](CC(C)C)NC(=O)[C@H](CCCCN)NC(=O)[C@H](CCCCN)NC(=O)[C@@H](N)CC(C)C)C(=O)N[C@@H](C)C(=O)NCC(=O)O [LKKLLKLPKKLLKLAG]
–,–,> 100,> 100,CC(C)C[C@H](NC(=O)[C@H](CCCCN)NC(=O)CNC(=O)[C@@H](N)CO)C(=O)N[C@@H](Cc1ccc(O)cc1)C(=O)N[C@@H](Cc1ccc(O)cc1)C(=O)N[C@@H](CCCN=C(N)N)C(=O)N[C@@H](CCCN=C(N)N)C(=O)N[C@@H](CCCCN)C(=O)N[C@@H](CCCCN)C(N)=O [SGKLYYRRKK]
–,–,32,–,CC(C)C[C@H](NC(=O)[C@H](CC(C)C)NC(=O)[C@H](CC(N)=O)NC(=O)[C@H](CCCCN)NC(=O)[C@H](CC(C)C)NC(=O)[C@H](CC(=O)O)NC(=O)[C@@H](N)C(C)C)C(=O)N[C@@H](CCCCN)C(=O)O [VDLKNLLK]
4.58 µM,–,12.2,3.05,C[C@H](NC(=O)[C@H](Cc1c[nH]c2ccccc12)NC(=O)[C@H](CCCN=C(N)N)NC(=O)[C@H](Cc1c[nH]c2ccccc12)NC(=O)[C@H](C)NC(=O)[C@H](CCCCN)NC(=O)[C@@H](N)Cc1ccc(O)cc1)C(=O)N[C@@H](Cc1c[nH]c2ccccc12)C(=O)N[C@@H](CCCN=C(N)N)C(=O)N[C@@H](Cc1c[nH]c2ccccc12)C(=O)N[C@@H](CCCCN)C(N)=O [YKAWRWAWRWK]
5.8 µM,–,4.35,2.9,CSCC[C@H](NC(=O)[C@H](CCCN=C(N)N)NC(=O)[C@H](Cc1c[nH]c2ccccc12)NC(=O)[C@H](C)NC(=O)[C@H](Cc1c[nH]c2ccccc12)NC(=O)[C@H](CCCN=C(N)N)NC(=O)[C@H](Cc1ccc(O)cc1)NC(=O)[C@H](Cc1c[nH]c2ccccc12)NC(=O)[C@H](CCCN=C(N)N)NC(=O)[C@@H](N)CCCN=C(N)N)C(=O)N[C@@H](CCCN=C(N)N)C(N)=O [RRWYRWAWRMR]
10.7 µM,–,–,–,CC[C@H](C)[C@H](NC(=O)[C@H](Cc1c[nH]c2ccccc12)NC(=O)[C@H](CCCN=C(N)N)NC(=O)[C@H](Cc1c[nH]c2ccccc12)NC(=O)[C@H](Cc1c[nH]c2ccccc12)NC(=O)[C@H](CCCN=C(N)N)NC(=O)[C@H](CCCN=C(N)N)NC(=O)[C@H](Cc1c[nH]c2ccccc12)NC(=O)[C@@H](N)CCCN=C(N)N)C(N)=O [RWRRWWRWI]
